Reference: ChEMBL document CHEMBL1671689, “Activity of ceftaroline against recent emerging serotypes of Streptococcus pneumoniae in the United States” (2010)
Converted amounts (≈) assume the structure as drawn.

Assays:
Assay type in all cases: functional
Streptococcus pneumoniae [1] = experiment: Antimicrobial activity against Streptococcus pneumoniae serotype 7F by broth microdilution method
Streptococcus pneumoniae [2] = experiment: Antimicrobial activity against multiple drug resistant Streptococcus pneumoniae serotype 6B by broth microdilution method
Streptococcus pneumoniae [3] = experiment: Antimicrobial activity against Streptococcus pneumoniae serotype 22F assessed as percent susceptible isolates by broth microdilution method
Streptococcus pneumoniae [4] = experiment: Antimicrobial activity against Streptococcus pneumoniae serotype 19F assessed as percent susceptible isolates by broth microdilution method
Streptococcus pneumoniae [5] = experiment: Antimicrobial activity against Streptococcus pneumoniae serotype 3 by broth microdilution method
Streptococcus pneumoniae [6] = experiment: Antimicrobial activity against Streptococcus pneumoniae serotype 23B assessed as percent susceptible isolates by broth microdilution method
Streptococcus pneumoniae [7] = experiment: Antimicrobial activity against Streptococcus pneumoniae serotype 19A assessed as percent susceptible isolates by broth microdilution method
Streptococcus pneumoniae [8] = experiment: Antimicrobial activity against Streptococcus pneumoniae serotype 35B by broth microdilution method
Streptococcus pneumoniae [9] = experiment: Antimicrobial activity against Streptococcus pneumoniae serotype 7F assessed as percent susceptible isolates by broth microdilution method
Streptococcus pneumoniae [10] = experiment: Antimicrobial activity against multiple drug resistant Streptococcus pneumoniae serotype 19F by broth microdilution method
Streptococcus pneumoniae [11] = experiment: Antimicrobial activity against Streptococcus pneumoniae serotype 35B assessed as percent susceptible isolates by broth microdilution method
Streptococcus pneumoniae [12] = experiment: Antimicrobial activity against Streptococcus pneumoniae serotype 3 assessed as percent susceptible isolates by broth microdilution method
Streptococcus pneumoniae [13] = experiment: Antimicrobial activity against Streptococcus pneumoniae serotype 11A assessed as percent susceptible isolates by broth microdilution method
Streptococcus pneumoniae [14] = experiment: Antimicrobial activity against Streptococcus pneumoniae serotype 11A by broth microdilution method
Streptococcus pneumoniae [15] = experiment: Antimicrobial activity against Streptococcus pneumoniae serotype 23A assessed as percent susceptible isolates by broth microdilution method
Streptococcus pneumoniae [16] = experiment: Antimicrobial activity against multiple drug resistant Streptococcus pneumoniae serotype 19A by broth microdilution method
Streptococcus pneumoniae [17] = experiment: Antimicrobial activity against multiple drug resistant Streptococcus pneumoniae serotype 19F assessed as percent susceptible isolates by broth microdilution method
Streptococcus pneumoniae [18] = experiment: Antimicrobial activity against multiple drug resistant Streptococcus pneumoniae serotype 19A assessed as percent susceptible isolates by broth microdilution method
Streptococcus pneumoniae [19] = experiment: Antimicrobial activity against Streptococcus pneumoniae serotype 6C by broth microdilution method
Streptococcus pneumoniae [20] = experiment: Antimicrobial activity against Streptococcus pneumoniae serotype 19A by broth microdilution method
Streptococcus pneumoniae [21] = experiment: Antimicrobial activity against Streptococcus pneumoniae serotype 6C assessed as percent susceptible isolates by broth microdilution method
Streptococcus pneumoniae [22] = experiment: Antimicrobial activity against Streptococcus pneumoniae serotype 15A assessed as percent susceptible isolates by broth microdilution method
Streptococcus pneumoniae [23] = experiment: Antimicrobial activity against multiple drug resistant Streptococcus pneumoniae serotype 6B assessed as percent susceptible isolates by broth microdilution method

Row | Compound | MIC (Streptococcus pneumoniae [1]) | MIC50 (Streptococcus pneumoniae [1]) | MIC90 (Streptococcus pneumoniae [1]) | MIC50 (Streptococcus pneumoniae [2]) | MIC90 (Streptococcus pneumoniae [2]) | Activity (Streptococcus pneumoniae [3]) | Activity (Streptococcus pneumoniae [4]) | MIC50 (Streptococcus pneumoniae [5]) | MIC90 (Streptococcus pneumoniae [5]) | Activity (Streptococcus pneumoniae [6]) | Activity (Streptococcus pneumoniae [7]) | MIC50 (Streptococcus pneumoniae [8]) | MIC90 (Streptococcus pneumoniae [8]) | Activity (Streptococcus pneumoniae [9]) | MIC50 (Streptococcus pneumoniae [14]) | MIC90 (Streptococcus pneumoniae [14]) | MIC50 (Streptococcus pneumoniae [19]) | MIC90 (Streptococcus pneumoniae [19]) | MIC50 (Streptococcus pneumoniae [20]) | MIC90 (Streptococcus pneumoniae [20]) | further results
1 | C[C@@H](O)[C@H]1C(=O)N2C(C(=O)O)=C(SCCNC=N)C[C@H]12 [IMIPENEM ANHYDROUS] | ≤ 0.12 µg/mL | ≤ 0.12 µg/mL | ≤ 0.12 µg/mL | 1 µg/mL (≈ 3.34 µM) | 1 µg/mL (≈ 3.34 µM) | 100% | 20.7% | ≤ 0.12 µg/mL | ≤ 0.12 µg/mL | 100% | 40.2% | 0.25 µg/mL (≈ 0.835 µM) | 0.5 µg/mL (≈ 1.67 µM) | 15.3% | ≤ 0.12 µg/mL | ≤ 0.12 µg/mL | ≤ 0.12 µg/mL | ≤ 0.12 µg/mL | 0.5 µg/mL (≈ 1.67 µM) | 1 µg/mL (≈ 3.34 µM) | MIC (Streptococcus pneumoniae [5]): ≤ 0.12 µg/mL; MIC50 (Streptococcus pneumoniae [10]): 1 µg/mL (≈ 3.34 µM); MIC90 (Streptococcus pneumoniae [10]): 1 µg/mL (≈ 3.34 µM); Activity (Streptococcus pneumoniae [11]): 15.3%; Activity (Streptococcus pneumoniae [12]): 100%; Activity (Streptococcus pneumoniae [13]): 95.9%; MIC (Streptococcus pneumoniae [14]): ≤ 0.12 µg/mL; Activity (Streptococcus pneumoniae [15]): 100%; MIC50 (Streptococcus pneumoniae [16]): 1 µg/mL (≈ 3.34 µM); MIC90 (Streptococcus pneumoniae [16]): 1 µg/mL (≈ 3.34 µM); Activity (Streptococcus pneumoniae [17]): 0.8%; Activity (Streptococcus pneumoniae [18]): 0.8%; MIC (Streptococcus pneumoniae [19]): ≤ 0.12 µg/mL; Activity (Streptococcus pneumoniae [21]): 90.7%; Activity (Streptococcus pneumoniae [22]): 100%; Activity (Streptococcus pneumoniae [23]): 0.8%
2 | COc1c(N2C[C@@H]3CCCN[C@@H]3C2)c(F)cc2c(=O)c(C(=O)O)cn(C3CC3)c12 [MOXIFLOXACIN] | ≤ 0.5 µg/mL | ≤ 0.5 µg/mL | ≤ 0.5 µg/mL |  |  | 100% | 96.6% | ≤ 0.5 µg/mL | ≤ 0.5 µg/mL | 97% | 100% | ≤ 0.5 µg/mL | ≤ 0.5 µg/mL | 100% | ≤ 0.5 µg/mL | ≤ 0.5 µg/mL | ≤ 0.5 µg/mL | ≤ 0.5 µg/mL | ≤ 0.5 µg/mL | ≤ 0.5 µg/mL | MIC (Streptococcus pneumoniae [5]): ≤ 0.5 µg/mL; MIC (Streptococcus pneumoniae [8]): ≤ 0.5 µg/mL; Activity (Streptococcus pneumoniae [11]): 100%; Activity (Streptococcus pneumoniae [12]): 100%; Activity (Streptococcus pneumoniae [13]): 100%; MIC (Streptococcus pneumoniae [14]): ≤ 0.5 µg/mL; Activity (Streptococcus pneumoniae [15]): 100%; Activity (Streptococcus pneumoniae [17]): 99.2%; Activity (Streptococcus pneumoniae [18]): 99.2%; MIC (Streptococcus pneumoniae [19]): ≤ 0.5 µg/mL; MIC (Streptococcus pneumoniae [20]): ≤ 0.5 µg/mL; Activity (Streptococcus pneumoniae [21]): 100%; Activity (Streptococcus pneumoniae [22]): 100%; Activity (Streptococcus pneumoniae [23]): 99.2%
3 | CCO/N=C(\C(=O)N[C@@H]1C(=O)N2C(C(=O)[O-])=C(Sc3nc(-c4cc[n+](C)cc4)cs3)CS[C@H]12)c1nsc(NP(=O)(O)O)n1 [CEFTAROLINE FOSAMIL] | ≤ 0.008 µg/mL | ≤ 0.008 µg/mL | 0.015 µg/mL (≈ 0.0219 µM) | 0.25 µg/mL (≈ 0.365 µM) | 0.25 µg/mL (≈ 0.365 µM) |  |  | ≤ 0.008 µg/mL | ≤ 0.008 µg/mL |  |  | 0.12 µg/mL (≈ 0.175 µM) | 0.12 µg/mL (≈ 0.175 µM) |  | 0.06 µg/mL (≈ 0.0876 µM) | 0.06 µg/mL (≈ 0.0876 µM) | 0.015 µg/mL (≈ 0.0219 µM) | 0.06 µg/mL (≈ 0.0876 µM) | 0.12 µg/mL (≈ 0.175 µM) | 0.25 µg/mL (≈ 0.365 µM) | MIC (Streptococcus pneumoniae [5]): ≤ 0.008 µg/mL; MIC50 (Streptococcus pneumoniae [10]): 0.25 µg/mL (≈ 0.365 µM); MIC90 (Streptococcus pneumoniae [10]): 0.25 µg/mL (≈ 0.365 µM); MIC50 (Streptococcus pneumoniae [16]): 0.25 µg/mL (≈ 0.365 µM); MIC90 (Streptococcus pneumoniae [16]): 0.25 µg/mL (≈ 0.365 µM)
4 | CCC[C@@H]1C[C@@H](C(=O)N[C@@H]([C@H]2O[C@H](SC)[C@H](O)[C@@H](O)[C@H]2O)[C@H](C)Cl)N(C)C1 [CLINDAMYCIN] | ≤ 0.25 µg/mL | ≤ 0.25 µg/mL | ≤ 0.25 µg/mL | > 2 µg/mL | > 2 µg/mL | 100% | 31% | ≤ 0.25 µg/mL | ≤ 0.25 µg/mL | 100% | 43.4% | ≤ 0.25 µg/mL | ≤ 0.25 µg/mL | 100% | ≤ 0.25 µg/mL | ≤ 0.25 µg/mL | ≤ 0.25 µg/mL | ≤ 0.25 µg/mL | > 2 µg/mL | > 2 µg/mL | MIC (Streptococcus pneumoniae [8]): ≤ 0.25 µg/mL; MIC50 (Streptococcus pneumoniae [10]): > 2 µg/mL; MIC90 (Streptococcus pneumoniae [10]): > 2 µg/mL; Activity (Streptococcus pneumoniae [11]): 100%; Activity (Streptococcus pneumoniae [12]): 96.3%; Activity (Streptococcus pneumoniae [13]): 95.9%; Activity (Streptococcus pneumoniae [15]): 81.8%; MIC (Streptococcus pneumoniae [16]): > 1 µg/mL; Activity (Streptococcus pneumoniae [17]): 0%; Activity (Streptococcus pneumoniae [18]): 0%; Activity (Streptococcus pneumoniae [21]): 97.7%; Activity (Streptococcus pneumoniae [22]): 10.5%; Activity (Streptococcus pneumoniae [23]): 0%
5 | CC(=O)NC[C@H]1CN(c2ccc(N3CCOCC3)c(F)c2)C(=O)O1 [LINEZOLID] |  | 0.5 µg/mL (≈ 1.48 µM) | 1 µg/mL (≈ 2.96 µM) | 0.5 µg/mL (≈ 1.48 µM) | 1 µg/mL (≈ 2.96 µM) | 100% | 100% | 0.5 µg/mL (≈ 1.48 µM) | 1 µg/mL (≈ 2.96 µM) | 100% | 100% | 1 µg/mL (≈ 2.96 µM) | 1 µg/mL (≈ 2.96 µM) | 100% | 1 µg/mL (≈ 2.96 µM) | 1 µg/mL (≈ 2.96 µM) | 1 µg/mL (≈ 2.96 µM) | 1 µg/mL (≈ 2.96 µM) | 0.5 µg/mL (≈ 1.48 µM) | 1 µg/mL (≈ 2.96 µM) | MIC50 (Streptococcus pneumoniae [10]): 0.5 µg/mL (≈ 1.48 µM); MIC90 (Streptococcus pneumoniae [10]): 1 µg/mL (≈ 2.96 µM); Activity (Streptococcus pneumoniae [11]): 100%; Activity (Streptococcus pneumoniae [12]): 100%; Activity (Streptococcus pneumoniae [13]): 100%; Activity (Streptococcus pneumoniae [15]): 100%; MIC50 (Streptococcus pneumoniae [16]): 0.5 µg/mL (≈ 1.48 µM); MIC90 (Streptococcus pneumoniae [16]): 1 µg/mL (≈ 2.96 µM); Activity (Streptococcus pneumoniae [21]): 100%; Activity (Streptococcus pneumoniae [22]): 100%
